The subject of assay [1] is PC-14/CDDP cisplatin tolerant cell line. Nature of the assay: MTT cell growth inhibition by anticancer drug with or without compound 1, PC-14/CDDP. Type of assay: cell-based, human. As to conditions: for IC50: PC-14/CDDP, MTT, read-out: 50% cell growth inhibiting concentration (IC50) of anticancer drug. Here is the method:
(§1) PC-14 as a human non-small cell lung cancer cell line and PC-14/CDDP as a cisplatin tolerant cell line thereof were used to examine an effect of overcoming each resistance to cisplatin, carboplatin, nedaplatin and taxol. PC-14 and PC-14/CDDP were made into a single cell in BPMI 1640 medium by trypsinization or by using a cell scraper, and prepared a cell suspension of 100 cells per 15 μl. The compound 1 dissolved in dimethyl sulfoxide was added therein to make final concentration of 10 μm, and then the resulting liquid was poured into a 96-perforated plate at 150 μl per well. An anticancer drug was dissolved in sterilized distilled water. The resulting liquid of 150 μl per well was poured into the first row to transfer in turn from the second row to the next rows by 150 μl for each raw so as to form two-fold dilution rows. A group without the cells was prepared as a negative control, and a group without the anticancer drug and the compound I was prepared as a positive control. After culturing at 37° C. under carbon dioxide having a concentration of 5% and saturated vapor for 96 hours, an MTT [3-(4,5-dimethylthiazol-2-yl)-2,5-diphenyltetrazolium bromide] reagent of 20 μl dissolved in D-PBS (−) at a concentration of 5 mg/ml was added to each of the groups, and the resulting liquid was cultured for another 4 hours at 37° C. After the completion of the culture, the entire plate was centrifuged, and the supernatant was removed. Dimethyl sulfoxide of 200 μl was added to dissolve formazan crystal generated by enzyme activities of mitochondria in the cells. Then, absorbed light of 562–630 nm was determined by using a multiplate reader. Given that the average growth rate of the negative control is 0% and the average growth rate of the positive control is 100%, a dose-growth curve was plotted to calculate […] cell growth inhibiting concentration (IC50).

Assay [2] concerns PC-14 human non-small cell lung cancer cell line. The assay can be described thus: MTT cell growth inhibition by anticancer drug with or without compound 1, PC-14. Type of assay: cell-based. As to conditions: read-out: 50% cell growth inhibiting concentration (IC50) of anticancer drug. Here is the method: as §1
For assay [3], the system named is GB-1 human glioblastoma cell and U87-GM cell. As to conditions: GB-1 cell and U87-GM cell; cited from earlier work.
Assay [4] relates to K562/ADM adriamycin resistant cell line. Nature of the assay: MTT cell growth inhibition by adriamycin with or without compound 1, K562/ADM. Conditions: for IC50: Homo sapiens, K562, K562/ADM, read-out: 50% cell growth inhibiting concentration (IC50) of adriamycin. Type of assay: cell-based, human. The protocol:
as §1
K562 as a human […] cell line and K562/ADM as an adriamycin resistant cell line thereof were used to examine the effect of overcoming the resistance to adriamycin. […]

The next assay has as its system PC-14/CDDP tumor. The assay can be described thus: Tumor growth in nude mice implanted with PC-14/CDDP. Type of assay: in vivo, nude mice BALB/c nu/nu. Conditions: for lowest T/C / Tumor growth rate GR: PC-14/CDDP; for Tumor growth rate GR: 11th. The protocol:
(§2) Female nude mice BALB/c nu/nu (6-week-old) were implanted subcutaneously in each back with 2×10^7 of PC-14/CDDP and the parental cell line PC-14 suspended in physiological saline, then the progress of tumor were observed. On the 7th day from the implantation, tumor condition was checked to select and randomize testable individuals not to cause any deviation, and the selected mice were then divided into a control group and a test group. After each tumor volume was determined based on the formula: (tumor short diameter)^2×(tumor long diameter), administration of drug was started on the seventh day.
(§3) The compound 1 was used as a test compound, 1.2 mg of which was dissolved in 0.05 ml of dimethyl sulfoxide, and then combined with 0.95 ml of 5% sorbitol-0.2% citric acid 1 hydrate solution (pH3.3) to make uniform solution.
(§4) Cisplatin was used as an anticancer drug, and was dissolved in distilled water to prepare 1.6 mg/ml solution.
(§5) The administration process is carried out by simultaneous intravenous injections of 0.05 ml of the test compound and 0.05 ml of the anticancer-drug solution once a day on the 7th, 11th, 15th day after the tumor implantation. For the control group, 0.1 ml of physiological saline was administered by intravenous injection, and for the group to be administered only the anticancer drug, 0.05 ml of the anticancer-drug solution and 0.05 ml of physiological saline were administered by intravenous injection. One dose of the test compound was 3 mg/kg, and one dose of the anticancer drug was 4 mg/kg. During the administration of the drug, physical status of the whole body of the mice was observed, and the weight and the long/short lengths of tumor were measured. Tumor growth rate (GR) and effect of inhibiting cancer (lowest T/C) were calculated based on the following formulas, respectively. [formula] [formula]

Assay [5] concerns B16a cell and B16a-Pt cell line. Conditions: B16a cell and cisplatin-resistant B16a-Pt cell line; cited from earlier work.
Another assay relates to PC-14 tumor. Nature of the assay: Tumor growth in nude mice implanted with PC-14. The assay is classed as in vivo, nude mice BALB/c nu/nu. Conditions: for Tumor growth rate GR: 11th. The protocol: as §2, §3, §4, §5
The subject of assay [6] is KCP-4 cell isolated from human nasopharyngeal cancer KB cells. Conditions: KCP-4 cisplatin-resistance cell; cited from earlier work.
Assay [7] deals with K562 human promyelocytic leukemia cell line. The assay can be described thus: MTT cell growth inhibition by adriamycin with or without compound 1, K562. Type of assay: cell-based. The protocol: PC-14 as a human non-small cell lung cancer cell line and PC-14/CDDP as a cisplatin tolerant cell line thereof were used to examine an effect of overcoming each resistance to cisplatin, carboplatin, nedaplatin and taxol. PC-14 and PC-14/CDDP were made into a single cell in BPMI 1640 medium by trypsinization or by using a cell scraper, and prepared a cell suspension of 100 cells per 15 μl. The compound 1 dissolved in dimethyl sulfoxide was added therein to make final concentration of 10 μm, and then the resulting liquid was poured into a 96-perforated plate at 150 μl per well. An anticancer drug was dissolved in sterilized distilled water. The resulting liquid of 150 μl per well was poured into the first row to transfer in turn from the second row to the next rows by 150 μl for each raw so as to form two-fold dilution rows. A group without the cells was prepared as a negative control, and a group without the anticancer drug and the compound I was prepared as a positive control. […] Then, absorbed light of 562–630 nm was determined by using a multiplate reader. […]

The mark [8] stands for this setting: with compound 1 (final concentration 10 μm), 96 hours.
[9] abbreviates: PC-14, with compound 1 (final concentration 10 μm), 96 hours.
Where [10] appears, read: PC-14, without compound 1, 96 hours.

Like-named read-outs stand apart in the source and are kept apart here.

As for `CC(=O)O[C@H]1C(=O)[C@@]2(C)[C@H]([C@H](OC(=O)c3ccccc3)[C@]3(O)C[C@H](OC(=O)[C@H](O)[C@@H](NC(=O)c4ccccc4)c4ccccc4)C(C)=C1C3(C)C)[C@]1(OC(C)=O)CO[C@@H]1C[C@@H]2O` [taxol], the IC50 was determined as 1.73 µM in [1] (Homo sapiens, PC-14, 96 h, with compound 1 (final concentration 10 μm), 96 hours); 5.29 µM in assay [1] (Homo sapiens, PC-14, 96 h, without compound 1, 96 hours); 0.000663 µM in assay [2] (Homo sapiens, PC-14, 96 h, PC-14, with compound 1 (final concentration 10 μm), 96 hours); 0.00113 µM in assay [2] (Homo sapiens, PC-14, 96 h, PC-14, without compound 1, 96 hours).
For the compound `COC(=O)C1=C(C)NC(C)=C(C(=O)OC2CCCN(Cc3ccccc3)C2)C1c1cccc([N+](=O)[O-])c1` (centres unmarked) [benidipine], the “drugs that enhance any significant antitumor effect of cisplatin” value in [3] is “none”.
For `COc1ccc2c(c1)CN(C(=O)CCN1CCC(Cc3ccccc3)CC1)CCS2` [compound 1, 4-[3-(4-benzylpiperidine-1-yl)propionyl]-7-methoxy-2,3,4,5-tetrahydro-1,4-benzothiazepine], in [4] (adriamycin resistant cell line K562/ADM), the “effect on resistance and sensitivity to adriamycin” value was “shows the effect of reducing the resistance to and increasing the sensitivity to adriamycin”. The “effect on resistance and sensitivity to anticancer drugs” value in [1] (cisplatin resistant lung cancer cell line PC-14/CDDP, compound 1 at 10 μm) was “shows the effect of reducing the resistance to and increasing the sensitivity to cisplatin, carboplatin, nedaplatin and taxol”. In the assay on PC-14/CDDP tumor (nude mice with PC-14/CDDP, compound 1 3 mg/kg with cisplatin 4 mg/kg i.v.), the “effect of inhibiting tumor growth together with cisplatin” value was “the effect of inhibiting tumor growth in the cisplatin resistant cancer cell line (PC-14/CDDP) was exhibited”.
In the case of `COc1ccc([C@@H]2Sc3ccccc3N(CCN(C)C)C(=O)[C@@H]2OC(C)=O)cc1` [diltiazem], the “enhancement of antitumor effect of cisplatin” value (from here on “enhancement”) in [5] was “do not exhibit any significant enhanced antitumor effect”. Moreover, the “drugs that enhance any significant antitumor effect of cisplatin” value in [3] is reported as “none”.
For the compound `Clc1ccc(C(c2ccc(Cl)cc2)[n+]2ccn(CC(OCc3ccc(Cl)cc3Cl)c3ccc(Cl)cc3Cl)c2)cc1.[Cl-]` (centres unmarked) [calmidazilium], the “enhancement” value in assay [5] is reported as “do not exhibit any significant enhanced antitumor effect”.
Take `N.N.[Cl][Pt][Cl]` [cisplatin]: the IC50 in assay [1] (setting [8]) came out at 2.16 ± 1.12 µM; in assay [1] (without compound 1, 96 hours), 18.6 ± 2.83 µM; in assay [2] (setting [9]) it was 1.77 ± 0.89 µM; in assay [2] (setting [10]), 2.4 ± 1.05 µM. For the same compound, the “lowest T/C” value with PC-14/CDDP tumor (11th day, cisplatin 4 mg/kg i.v. with compound 1 3 mg/kg i.v.) is recorded as 9.81%; in the assay on PC-14/CDDP tumor (11th day, cisplatin 4 mg/kg i.v., without compound 1), 20.64%; in the assay on PC-14/CDDP tumor (15th day, cisplatin 4 mg/kg i.v. with compound 1 3 mg/kg i.v.) it was 2.36%; in the assay on PC-14/CDDP tumor (15th day, cisplatin 4 mg/kg i.v., without compound 1), 8.47%; with PC-14 tumor (11th day, PC-14, cisplatin 4 mg/kg i.v. with compound 1 3 mg/kg i.v.), 9.76%; with PC-14 tumor (11th day, PC-14, cisplatin 4 mg/kg i.v., without compound 1), 13.33%. The “lowest T/C” value in the assay with PC-14 tumor (15th day, PC-14, cisplatin 4 mg/kg i.v. with compound 1 3 mg/kg i.v.) is on record as 6.75%; in the assay with PC-14 tumor (15th day, PC-14, cisplatin 4 mg/kg i.v., without compound 1), 10.52%. The “Tumor growth rate GR” value is 478.43% in the assay with PC-14/CDDP tumor (cisplatin 4 mg/kg i.v. on 7th, 15th day, without compound 1); 190.52% in the assay with PC-14/CDDP tumor (cisplatin 4 mg/kg i.v. with compound 1 3 mg/kg i.v. on 7th, 15th day); 874.30% with PC-14 tumor (PC-14, cisplatin 4 mg/kg i.v. on 7th, 15th day, without compound 1); 753.32% in the assay with PC-14 tumor (PC-14, cisplatin 4 mg/kg i.v. with compound 1 3 mg/kg i.v. on 7th, 15th day). Besides, the “resistance of KCP-4 cell to cisplatin” value in assay [6] was “about 63 fold”.
With `COc1cccc2c1C(=O)c1c(O)c3c(c(O)c1C2=O)C[C@@](O)(C(=O)CO)C[C@@H]3O[C@H]1C[C@H](N)[C@H](O)[C@H](C)O1` [adriamycin], the IC50 turned out to be 0.166 µM in [4] (with compound 1, n = 1); 1.15 µM in [4] (without compound 1, n = 1); 0.004 µM in assay [7] (K562, K562, with compound 1, n = 1, read-out: 50% cell growth inhibiting concentration (IC50) of adriamycin); 0.008 µM in assay [7] (K562, K562, without compound 1, n = 1, read-out: 50% cell growth inhibiting concentration (IC50) of adriamycin).
Consider `N.N.O=C([O-])C1(C(=O)[O-])CCC1.[Pt+2]` [carboplatin], for which the IC50 was determined as 26.1 ± 7.78 µM in assay [1] (setting [8]); 143 ± 39.1 µM in assay [1] (without compound 1, 96 hours); 29.5 ± 11.3 µM in [2] (setting [9]); 37.1 ± 10.8 µM in [2] (setting [10]).
Consider `CN1CCN(CCCN2c3ccccc3Sc3ccc(C(F)(F)F)cc32)CC1` [trifluoperazine], for which the “enhancement” value in assay [5] was “do not exhibit any significant enhanced antitumor effect”.
As to `COC(=O)C1=C(C#N)NC(C)=C(C(=O)OC(C)C)C1c1cccc([N+](=O)[O-])c1` (centres unmarked) [nilvadipine], the “drugs that enhance any significant antitumor effect of cisplatin” value in [3] is given as “none”.
As for `COc1ccc(CCN(C)CCCC(C#N)(c2ccc(OC)c(OC)c2)C(C)C)cc1OC` (centres unmarked) [verapamil], in [5], the “enhancement” value is on record as “do not exhibit any significant enhanced antitumor effect”. The “drugs that enhance any significant antitumor effect of cisplatin” value in [3] is “none”.
For the compound `[NH2][Pt]1([NH2])[O]CC(=O)[O]1` [nedaplatin], the IC50 came out at 4.16 ± 1.28 µM in [1] (setting [8]); 25.9 ± 8.12 µM in assay [1] (without compound 1, 96 hours); 4.36 ± 1.53 µM in assay [2] (setting [9]); 7.1 ± 1.53 µM in [2] (setting [10]).

Values taken from patent US6977252B1, “Use of 1,4-benzothiazepine derivatives as drugs for overcoming resistance to anticancer drugs” (Noboru Kaneko, priority 1999, dated 2005).
